In patent US20150291593A1, “NOVEL HETEROARYL AND HETEROCYCLE COMPOUNDS, COMPOSITIONS AND METHODS” (HUTCHISON MEDIPHARMA LIMITED, priority 2012, published 2015):

How the values were obtained:
p110γ = molecular target: T1, p110γ (Homo sapiens, UniProt P48736); assay: Transcreener KINASE Assay, kinase inhibition of p110γ; assay type: biochemical; conditions: for IC50: read-out: PI3Kγ IC50
T1 construct: purchased Invitrogen
Experimental: PI3K kinases including p110α/p85α, p110δ/p85α and p110γ are purchased from Invitrogen, and p110β/p85α is from Millipore. Primary screening data and IC50 values are measured using Transcreener™ KINASE Assay (Bellbrook, Catalog #3003-10K). […] It is a universal, homogenous, high throughput screening (HTS) technology using a far-red, competitive fluorescence polarization immunoassay based on the detection of ADP to monitor the activity of enzymes that catalyze group transfer reactions. Briefly, the Transcreener KINASE Assay is designed as a simple two-part, endpoint assay. […] The plate is sealed and incubated for 80 min at room temperature. Next, 25 ul ADP detection mix is added per well. The plate is sealed again and incubated for 60 min at room temperature, and then measure fluorescence polarization by Tecan Infinite F500 Reader. Data is analyzed and IC50s are generated using the add-in software for Microsoft Excel, Xlfit™ (version 2.0).

p110δ/p85α = molecular target: T2, p110δ/p85α (Homo sapiens, UniProt O00329); assay: Transcreener KINASE Assay, kinase inhibition of p110δ/p85α; assay type: biochemical; conditions: for IC50: read-out: PI3Kδ IC50
T2 construct: purchased Invitrogen
T2 sequence (O00329 whole entry, species assumed): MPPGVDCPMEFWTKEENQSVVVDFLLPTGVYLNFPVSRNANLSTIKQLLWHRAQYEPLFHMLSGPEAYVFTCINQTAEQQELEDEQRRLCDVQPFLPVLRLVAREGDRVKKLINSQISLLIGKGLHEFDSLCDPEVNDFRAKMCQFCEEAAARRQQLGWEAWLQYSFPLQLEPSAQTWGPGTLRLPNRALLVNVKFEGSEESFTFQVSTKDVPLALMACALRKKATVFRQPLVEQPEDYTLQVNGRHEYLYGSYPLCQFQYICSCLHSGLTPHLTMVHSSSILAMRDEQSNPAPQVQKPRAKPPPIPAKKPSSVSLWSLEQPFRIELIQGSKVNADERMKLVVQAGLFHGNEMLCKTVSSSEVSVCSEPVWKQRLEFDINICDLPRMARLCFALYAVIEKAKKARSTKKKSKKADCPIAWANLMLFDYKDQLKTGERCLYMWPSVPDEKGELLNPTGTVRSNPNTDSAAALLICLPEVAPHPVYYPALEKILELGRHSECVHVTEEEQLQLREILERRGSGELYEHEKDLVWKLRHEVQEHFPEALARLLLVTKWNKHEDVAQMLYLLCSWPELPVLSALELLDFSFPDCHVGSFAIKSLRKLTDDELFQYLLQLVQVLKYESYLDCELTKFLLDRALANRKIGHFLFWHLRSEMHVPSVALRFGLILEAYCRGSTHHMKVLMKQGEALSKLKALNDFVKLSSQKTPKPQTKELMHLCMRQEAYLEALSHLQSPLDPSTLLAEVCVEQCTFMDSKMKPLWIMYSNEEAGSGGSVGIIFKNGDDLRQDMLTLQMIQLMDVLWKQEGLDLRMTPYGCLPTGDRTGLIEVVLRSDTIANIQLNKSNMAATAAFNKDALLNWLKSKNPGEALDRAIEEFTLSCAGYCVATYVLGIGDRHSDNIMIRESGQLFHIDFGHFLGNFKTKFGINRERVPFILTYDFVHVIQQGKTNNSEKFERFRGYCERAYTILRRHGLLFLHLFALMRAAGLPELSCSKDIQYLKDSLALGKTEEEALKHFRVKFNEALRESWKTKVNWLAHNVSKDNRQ
T2 sequence (P27986 whole entry partner, species assumed): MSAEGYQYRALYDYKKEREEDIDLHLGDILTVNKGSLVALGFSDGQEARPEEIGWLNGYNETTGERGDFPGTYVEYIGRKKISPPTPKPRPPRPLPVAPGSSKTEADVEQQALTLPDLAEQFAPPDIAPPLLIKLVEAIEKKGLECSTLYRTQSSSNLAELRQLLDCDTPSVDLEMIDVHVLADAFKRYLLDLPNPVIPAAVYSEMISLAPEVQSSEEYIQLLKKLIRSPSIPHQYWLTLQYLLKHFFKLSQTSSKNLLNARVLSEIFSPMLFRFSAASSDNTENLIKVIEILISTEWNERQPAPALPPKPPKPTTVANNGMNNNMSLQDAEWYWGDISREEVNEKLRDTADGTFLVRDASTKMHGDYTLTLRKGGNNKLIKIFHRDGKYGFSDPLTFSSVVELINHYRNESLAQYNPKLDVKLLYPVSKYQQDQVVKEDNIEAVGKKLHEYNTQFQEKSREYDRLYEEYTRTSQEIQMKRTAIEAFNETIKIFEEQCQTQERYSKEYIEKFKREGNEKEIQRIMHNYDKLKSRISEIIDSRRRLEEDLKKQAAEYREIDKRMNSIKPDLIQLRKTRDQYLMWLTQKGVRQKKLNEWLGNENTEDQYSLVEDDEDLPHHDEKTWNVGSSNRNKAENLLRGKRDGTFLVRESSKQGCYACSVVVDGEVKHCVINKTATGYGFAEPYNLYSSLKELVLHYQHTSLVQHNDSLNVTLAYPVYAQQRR
Experimental: (§1) PI3K kinases including p110α/p85α, p110δ/p85α and p110γ are purchased from Invitrogen, and p110β/p85α is from Millipore.
(§2) Primary screening data and IC50 values are measured using Transcreener™ KINASE Assay (Bellbrook, Catalog #3003-10K). […] It is a universal, homogenous, high throughput screening (HTS) technology using a far-red, competitive fluorescence polarization immunoassay based on the detection of ADP to monitor the activity of enzymes that catalyze group transfer reactions. Briefly, the Transcreener KINASE Assay is designed as a simple two-part, endpoint assay.
(§3) In the first step, the 25 ul kinase reaction is performed by preparing a reaction mixture containing 5 ul test compound (2% DMSO final concentration), 10 ul kinase, buffer (50 mM HEPES, 100 mM NaCl, 1 mM EGTA, 0.03% CHAPS, 3 mM MgCl2, and freshly supplemented 1 mM DTT), and 10 ul 30 uM PIP2/10 uM ATP. The plate is sealed and incubated for 80 min at room temperature. Next, 25 ul ADP detection mix is added per well. The plate is sealed again and incubated for 60 min at room temperature, and then measure fluorescence polarization by Tecan Infinite F500 Reader.
(§4) Data is analyzed and IC50s are generated using the add-in software for Microsoft Excel, Xlfit™ (version 2.0). IH %=(ADP amount under 2% DMSO-ADP amount under test compound)/ADP amount under 2% DMSO.

p110β/p85α = molecular target: T3, p110β/p85α (Homo sapiens, UniProt P42338); assay: Transcreener KINASE Assay, kinase inhibition of p110β/p85α; assay type: biochemical; conditions: for IC50: read-out: PI3Kβ IC50
T3 construct: purchased Millipore
T3 sequence (P42338 whole entry, species assumed): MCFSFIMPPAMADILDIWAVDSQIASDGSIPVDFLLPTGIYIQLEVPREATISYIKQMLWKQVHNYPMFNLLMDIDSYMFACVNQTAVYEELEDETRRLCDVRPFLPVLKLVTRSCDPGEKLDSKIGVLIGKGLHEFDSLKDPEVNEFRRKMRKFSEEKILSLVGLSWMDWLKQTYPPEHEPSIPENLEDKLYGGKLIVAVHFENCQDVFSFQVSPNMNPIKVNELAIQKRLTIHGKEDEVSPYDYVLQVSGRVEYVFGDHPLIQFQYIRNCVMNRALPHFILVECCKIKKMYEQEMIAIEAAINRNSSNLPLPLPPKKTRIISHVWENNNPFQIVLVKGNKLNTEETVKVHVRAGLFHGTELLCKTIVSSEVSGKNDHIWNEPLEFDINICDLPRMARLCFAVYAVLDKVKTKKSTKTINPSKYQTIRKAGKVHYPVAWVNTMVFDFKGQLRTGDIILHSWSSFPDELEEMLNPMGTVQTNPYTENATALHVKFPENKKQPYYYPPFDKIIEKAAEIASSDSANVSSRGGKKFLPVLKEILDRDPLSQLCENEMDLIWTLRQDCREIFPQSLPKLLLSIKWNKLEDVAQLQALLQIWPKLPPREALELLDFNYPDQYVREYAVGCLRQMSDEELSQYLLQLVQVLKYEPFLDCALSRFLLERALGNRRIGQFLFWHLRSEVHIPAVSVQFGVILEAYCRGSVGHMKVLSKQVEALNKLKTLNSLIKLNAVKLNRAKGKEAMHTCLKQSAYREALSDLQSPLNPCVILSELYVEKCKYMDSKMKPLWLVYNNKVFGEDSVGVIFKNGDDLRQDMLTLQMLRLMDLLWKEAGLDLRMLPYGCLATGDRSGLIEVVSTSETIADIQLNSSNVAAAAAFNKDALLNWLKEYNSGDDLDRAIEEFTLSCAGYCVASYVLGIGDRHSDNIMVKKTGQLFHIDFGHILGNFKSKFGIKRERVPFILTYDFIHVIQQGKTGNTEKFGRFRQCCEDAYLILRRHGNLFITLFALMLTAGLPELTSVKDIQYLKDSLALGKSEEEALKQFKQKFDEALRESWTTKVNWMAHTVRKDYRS
T3 sequence (P27986 whole entry partner, species assumed): as the sequence (P27986 whole entry partner, species assumed) above
Experimental: as §1, §2, §3, §4

PI3Kγ = molecular target: T4, PI3Kγ (Mus musculus, UniProt Q9JHG7); assay: Acumen Assay - Raw264.7 p-AKT Assay (C5a stimulated); assay type: cell-based; conditions: Raw264.7 macrophage cells, compound 30 min, 10 nM C5a 5 min, p-AKT (Ser473) readout; read-out: PI3Kγ cell-C5a Raw264.7 IC50
T4 construct: endogenous in cells; host or cells: Raw264.7 macrophage cells
T4 sequence (Q9JHG7 whole entry): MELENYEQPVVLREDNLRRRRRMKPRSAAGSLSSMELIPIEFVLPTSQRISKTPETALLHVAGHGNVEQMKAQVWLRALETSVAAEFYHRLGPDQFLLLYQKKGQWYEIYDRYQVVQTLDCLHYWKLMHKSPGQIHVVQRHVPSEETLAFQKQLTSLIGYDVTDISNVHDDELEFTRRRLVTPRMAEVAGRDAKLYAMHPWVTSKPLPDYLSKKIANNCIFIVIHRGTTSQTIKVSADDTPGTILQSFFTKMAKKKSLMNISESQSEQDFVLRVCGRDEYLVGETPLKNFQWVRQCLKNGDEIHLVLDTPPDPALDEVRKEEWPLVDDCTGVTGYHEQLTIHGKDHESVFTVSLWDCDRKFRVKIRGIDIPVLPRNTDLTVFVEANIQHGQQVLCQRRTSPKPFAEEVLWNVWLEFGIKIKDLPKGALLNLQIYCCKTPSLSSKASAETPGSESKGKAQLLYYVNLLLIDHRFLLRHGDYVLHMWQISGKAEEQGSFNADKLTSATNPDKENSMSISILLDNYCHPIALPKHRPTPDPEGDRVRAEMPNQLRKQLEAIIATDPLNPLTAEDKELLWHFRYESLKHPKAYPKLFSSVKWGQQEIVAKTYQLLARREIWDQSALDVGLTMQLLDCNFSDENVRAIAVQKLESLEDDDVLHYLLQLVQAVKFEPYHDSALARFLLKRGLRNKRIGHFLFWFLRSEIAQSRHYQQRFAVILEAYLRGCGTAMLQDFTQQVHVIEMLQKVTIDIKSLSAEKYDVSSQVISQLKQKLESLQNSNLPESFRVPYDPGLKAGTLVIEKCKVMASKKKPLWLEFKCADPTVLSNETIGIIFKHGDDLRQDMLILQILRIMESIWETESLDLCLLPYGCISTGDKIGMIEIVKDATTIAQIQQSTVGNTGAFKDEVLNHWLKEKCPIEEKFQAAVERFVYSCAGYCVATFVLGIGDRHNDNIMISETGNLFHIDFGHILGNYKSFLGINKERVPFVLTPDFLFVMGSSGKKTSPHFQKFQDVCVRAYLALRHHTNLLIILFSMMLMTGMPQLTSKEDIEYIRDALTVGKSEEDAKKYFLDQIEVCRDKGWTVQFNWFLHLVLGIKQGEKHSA
Experimental: Acumen® eX3 (A Mμltilaser Microplate Cytometer For Enhanced High Content Screening): TTP LabTech
3×10^4 Raw264.7 macrophage cells were seeded into 96-well plates with DMEM+10% heat-inactivated FBS at […], 90 ul/well, overnight. After starvation for 3 hr at 37° C. under 5% CO2, Raw264.7 cells were treated with 10 ul/well various concentrations of compound or 0.5% DMSO for 30 min, and then stimulated with 10 ul/well 10 nM C5a for 5 min.
1.) Cells were fixed 110 μL of 4% pre-warmed Paraformaldehyde (2% final), incubate for 45 min at room temperature.
2.) Remove paraformaldehyde solution. Add 100 μL of ice-cold 0.1% Triton X-100 in PBS and leave at 4° C. for 30 min.
3.) Wash once in 100 μL PBS.
4.) Incubate with 100 μL blocking buffer (1% BSA, in PBS) for 2 hours at room temperature.
5.) Wash once for 5 min with 100 ul PBS.
6.) Incubate with 40 μL 1:200 dilution of phospho AKT (Ser473) rabbit antibody in antibody dilution buffer (0.1% BSA, in PBS) overnight at 4° C.
7.) Wash for 3 times for 10 min with 100 ul PBS.
8.) Incubate for 90 min at room temperature with 50 μL of goat anti-rabbit Alex488 antibody at a 1:1,000 dilution in antibody dilution buffer (0.1% BSA, in PBS). Cover plate in foil to keep out of light.
9.) Wash for 3 times for 10 min with 100 μL PBS.
10.) Add 50 μL of 1.5 μM Propidium Iodide solution to each well to determine cell number at a 1:1,000 dilution in PBS (stock: 1.5 mM).
11.) Incubate at room temperature for 30 min.
12.) Seal the plate with a black cover-seal (supplied with plate).
13.) Load the plate into the Acumen Explorer and scan with the appropriate instrument settings.

T1 sequence (P48736 whole entry, species assumed): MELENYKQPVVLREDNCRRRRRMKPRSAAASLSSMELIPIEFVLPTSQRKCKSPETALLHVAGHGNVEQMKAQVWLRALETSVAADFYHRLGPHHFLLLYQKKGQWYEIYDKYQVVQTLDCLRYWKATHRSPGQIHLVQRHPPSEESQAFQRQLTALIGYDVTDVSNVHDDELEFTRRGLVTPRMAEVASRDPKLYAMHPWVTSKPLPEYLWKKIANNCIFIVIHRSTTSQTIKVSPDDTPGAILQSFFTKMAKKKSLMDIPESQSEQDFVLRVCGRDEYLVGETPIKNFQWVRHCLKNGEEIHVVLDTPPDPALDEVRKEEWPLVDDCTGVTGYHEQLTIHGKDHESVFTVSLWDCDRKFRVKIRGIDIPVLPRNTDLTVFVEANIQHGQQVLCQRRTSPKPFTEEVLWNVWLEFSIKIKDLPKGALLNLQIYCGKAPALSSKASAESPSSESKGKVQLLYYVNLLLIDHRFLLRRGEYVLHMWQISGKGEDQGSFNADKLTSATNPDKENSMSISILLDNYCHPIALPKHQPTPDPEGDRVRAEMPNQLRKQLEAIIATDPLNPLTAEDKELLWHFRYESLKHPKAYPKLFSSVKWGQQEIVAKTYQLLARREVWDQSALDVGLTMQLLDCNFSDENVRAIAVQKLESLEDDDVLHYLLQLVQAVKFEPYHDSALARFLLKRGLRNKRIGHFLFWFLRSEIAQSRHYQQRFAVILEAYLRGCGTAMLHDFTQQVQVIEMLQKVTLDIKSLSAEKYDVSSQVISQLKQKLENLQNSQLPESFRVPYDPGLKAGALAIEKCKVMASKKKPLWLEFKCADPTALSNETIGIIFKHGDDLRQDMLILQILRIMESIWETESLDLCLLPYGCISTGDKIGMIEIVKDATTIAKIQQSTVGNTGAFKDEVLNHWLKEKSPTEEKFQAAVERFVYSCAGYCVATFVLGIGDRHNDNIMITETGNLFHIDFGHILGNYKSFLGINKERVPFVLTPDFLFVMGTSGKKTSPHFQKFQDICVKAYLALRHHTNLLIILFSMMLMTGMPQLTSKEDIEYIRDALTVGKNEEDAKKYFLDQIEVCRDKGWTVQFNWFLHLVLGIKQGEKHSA

## CC(Nc1ncnc2[nH]cc(C#N)c12)c1cn2ccc(Cl)c2c(=O)n1-c1cccc(F)c1 (centres unmarked) [Compound 76]
p110γ
  IC50: 10 nM
p110δ/p85α
  IC50: 4 nM
p110β/p85α
  PI3Kβ IH % @ 1 uM: 82.0%

## CC(Nc1ncnc(N)c1C#N)c1cn2ccc(Cl)c2c(=O)n1-c1cc(F)cc(F)c1 (centres unmarked) [Compound 81]
p110γ
  IC50: 70 nM
p110δ/p85α
  PI3Kδ IH % @ 1 uM: >100%
  IC50: 6 nM
p110β/p85α
  PI3Kβ IH % @ 1 uM: 79.0%

## O=c1c2cccn2nc([C@@H]2CCCN2c2ncnc3[nH]cc(-c4cn[nH]c4)c23)n1-c1ccccc1 [Compound 99]
p110γ
  PI3Kγ IH % @ 1 uM: 94.2%
  IC50: 6 nM
p110δ/p85α
  PI3Kδ IH % @ 1 uM: >100%
  IC50: 3 nM
p110β/p85α
  PI3Kβ IH % @ 1 uM: 78.8%
  IC50: 147 nM

## N#Cc1c[nH]c2ncnc(N3CCC[C@H]3c3nn4c(F)ccc4c(=O)[nH]3)c12 [Compound 106, (S)-4-(2-(7-fluoro-4-oxo-3,4-dihydropyrrolo[1,2-f][1,2,4]triazin-2-yl)pyrrolidin-1-yl)-7H-pyrrolo[2,3-d]pyrimidine-5-carbonitrile]
p110γ
  PI3Kγ IH % @ 1 uM: 41.1%
p110δ/p85α
  PI3Kδ IH % @ 1 uM: 86.8%
  IC50: 232 nM
p110β/p85α
  PI3Kβ IH % @ 1 uM: 61.9%

## N#Cc1n[nH]c2ncnc(N3CCC[C@H]3c3nn4cccc4c(=O)n3-c3ccccc3)c12 [Compound 110, (S)-4-(2-(4-oxo-3-phenyl-3,4-dihydropyrrolo[1,2-f][1,2,4]triazin-2-yl)pyrrolidin-1-yl)-1H-pyrazolo[3,4-d]pyrimidine-3-carbonitrile]
p110γ
  PI3Kγ IH % @ 1 uM: 38.7%
p110δ/p85α
  PI3Kδ IH % @ 1 uM: 72.8%
p110β/p85α
  PI3Kβ IH % @ 1 uM: 23.9%

## N#Cc1ccn2nc([C@@H]3CCCN3c3ncnc4[nH]cnc34)n(-c3ccccc3)c(=O)c12 [Compound 112]
p110γ
  PI3Kγ IH % @ 1 uM: 96.4%
  IC50: 231 nM
p110δ/p85α
  PI3Kδ IH % @ 1 uM: 94.6%
  IC50: 26 nM
p110β/p85α
  PI3Kβ IH % @ 1 uM: 34.5%

## CC(Nc1ncnc2[nH]cc(C#N)c12)c1cc2cccn2c(=O)n1-c1ccccc1 (centres unmarked) [Compound 121]
p110γ
  PI3Kγ IH % @ 1 uM: >100%
p110δ/p85α
  PI3Kδ IH % @ 1 uM: 92.7%
p110β/p85α
  PI3Kβ IH % @ 1 uM: 63.9%

## O=c1c2c(Cl)ccn2nc([C@@H]2CC(F)(F)CN2c2ncnc3[nH]cnc23)n1Cc1ccccn1 [Compound 159]
p110γ
  PI3Kγ IH % @ 1 uM: 20.4%
p110δ/p85α
  PI3Kδ IH % @ 1 uM: 85.0%
  IC50: 127 nM
p110β/p85α
  PI3Kβ IH % @ 1 uM: 32.8%

## C[S+]([O-])c1c[nH]c2ncnc(N3CCC[C@H]3c3nn4ccc(Cl)c4c(=O)n3-c3ccccc3)c12 (some centres unmarked) [Compound 188]
p110γ
  IC50: 17 nM
p110δ/p85α
  IC50: 5 nM
p110β/p85α
  IC50: 741 nM

## O=c1c2c(F)ccn2nc([C@@H]2CCCN2c2ncnc3[nH]cnc23)n1-c1cccc(F)c1 [Compound 191]
PI3Kγ
  IC50: 54 nM

## CC(=O)c1cnc(N)nc1N1C[C@H](C)[C@H]1c1nn2ccc(Cl)c2c(=O)n1-c1ccc(F)cc1 [Compound 206]
PI3Kγ
  IC50: 5 nM

## N#Cc1cnc(N)nc1N1CCC[C@H]1c1nn2ccc(Cl)c2c(=O)n1-c1ccccc1 [Compound 207]
PI3Kγ
  IC50: 22 nM

## N#Cc1c[nH]c2ncnc(N3C[C@@H](F)C[C@H]3c3nn4ccc(Cl)c4c(=O)n3-c3cccc(F)c3)c12 [Compound 213]
PI3Kγ
  IC50: 2 nM

## O=c1c2c(Cl)ccn2nc([C@@H]2C[C@H](F)CN2c2ncnc3[nH]cnc23)n1-c1cccc(F)c1 [Compound 214]
PI3Kγ
  IC50: 15 nM

## CC(=O)c1c[nH]c2ncnc(N3CCC[C@H]3c3nn4ccc(F)c4c(=O)n3-c3ccccc3)c12 [Compound 218]
PI3Kγ
  IC50: 42 nM

## N#Cc1cnc(N)nc1N1C[C@@H](F)C[C@H]1c1nn2ccc(Cl)c2c(=O)n1-c1ccccc1 [Compound 229]
PI3Kγ
  IC50: 11 nM

## N#Cc1cnc(N)nc1N1CCC[C@H]1c1nn2ccc(Cl)c2c(=O)n1-c1ccc(F)cc1 [Compound 231]
PI3Kγ
  IC50: 15 nM

## N#Cc1cnc(N)nc1N1CCC[C@H]1c1nn2ccc(Cl)c2c(=O)n1-c1cccc(F)c1 [Compound 232]
PI3Kγ
  IC50: 44 nM

## C[C@H]1CCN(c2ncnc3[nH]cc(C#N)c23)C1c1nn2ccc(Cl)c2c(=O)n1-c1ccccc1 (some centres unmarked) [Compound 233]
p110γ
  IC50: 13 nM
p110δ/p85α
  IC50: 4 nM
p110β/p85α
  IC50: 26 nM

## C[C@H]1CCN(c2ncnc3[nH]cnc23)C1c1nn2ccc(Cl)c2c(=O)n1-c1ccccc1 (some centres unmarked) [Compound 234]
p110γ
  IC50: 12 nM
p110δ/p85α
  IC50: 2 nM
p110β/p85α
  IC50: 50 nM

## Nc1nc2c(c(N3CC[C@H]3c3nn4ccc(Cl)c4c(=O)n3-c3ccccc3)n1)C(=O)CCN2 [Compound 241]
PI3Kγ
  IC50: 22 nM

## Nc1nc2c(c(N3CCC[C@H]3c3nn4ccc(Cl)c4c(=O)n3-c3ccccc3)n1)C(=O)CCN2 [Compound 242]
PI3Kγ
  IC50: 21 nM

## O=c1c2c(Cl)ccn2nc([C@@H]2CCCN2c2ncnc3[nH]cnc23)n1CC1CC1 [Compound 256]
p110γ
  PI3Kγ IH % @ 1 uM: >100%
  IC50: 82 nM
p110δ/p85α
  PI3Kδ IH % @ 1 uM: 97.5%
  IC50: 6 nM
p110β/p85α
  PI3Kβ IH % @ 1 uM: 68.1%

## CC(Nc1ncnc2[nH]cc(F)c12)c1cn2ccc(Cl)c2c(=O)n1-c1ccccc1 (centres unmarked) [Compound 270]
PI3Kγ
  IC50: 65 nM

## CC(=O)c1c[nH]c2ncnc(NC(C)c3cn4ccc(Cl)c4c(=O)n3-c3ccccc3)c12 (centres unmarked) [Compound 272]
PI3Kγ
  IC50: 36 nM

## CC(=O)c1cnc(N)nc1NC(C)c1cn2ccc(Cl)c2c(=O)n1-c1ccccc1 (centres unmarked) [Compound 273]
PI3Kγ
  IC50: 3 nM

## Cc1nc(N)nc(N2CC[C@H]2c2nn3ccc(Cl)c3c(=O)n2-c2ccccc2)c1C#N [Compound 283]
PI3Kγ
  IC50: 3 nM

## CC(Nc1ncnc2[nH]cc(F)c12)c1cc2ncc(Cl)n2c(=O)n1-c1ccccc1 (centres unmarked) [Compound 285]
PI3Kγ
  IC50: 46 nM

## CC(=O)c1cnc(N)nc1NC(C)c1cc2ncc(Cl)n2c(=O)n1-c1ccccc1 (centres unmarked) [Compound 288]
PI3Kγ
  IC50: 43 nM

## CC(=O)c1cnc(N)nc1N1CC[C@H]1c1nn2ccc(Cl)c2c(=O)n1-c1ccccc1 [Compound 299]
PI3Kγ
  IC50: 6 nM

## CC(=O)c1cnc(N)nc1N1CC[C@H]1c1nn2ccc(Cl)c2c(=O)n1-c1ccc(F)cc1 [Compound 302]
PI3Kγ
  IC50: 43 nM

## CC(=O)c1cnc(N)nc1N1CCCC1c1cn2ccc(Cl)c2c(=O)n1-c1ccccc1 (centres unmarked) [Compound 321]
PI3Kγ
  IC50: 9 nM

## CC(=O)c1cnc(N)nc1N1CC[C@H]1c1nn2ccc(F)c2c(=O)n1-c1ccccc1 [Compound 323]
PI3Kγ
  IC50: 80 nM

## CC(=O)c1cnc(N)nc1N1C[C@H](C)[C@H]1c1nn2ccc(F)c2c(=O)n1-c1ccccc1 [Compound 324]
PI3Kγ
  IC50: 63 nM

## CC(=O)c1c[nH]c2ncnc(N3CCC[C@H]3c3nn4ccc(Cl)c4c(=O)n3-c3ccccn3)c12 [Compound 340]
PI3Kγ
  IC50: 45 nM

## N#Cc1cnc(N)nc1N1C[C@@H](C#N)C[C@H]1c1nn2ccc(Cl)c2c(=O)n1-c1ccccc1 [Compound 351]
PI3Kγ
  IC50: 5 nM

## N#Cc1c[nH]c2ncnc(N3CCCC3c3cn4ccc(Cl)c4c(=O)n3-c3ccccc3)c12 (centres unmarked) [Compound 364]
PI3Kγ
  IC50: 6 nM

## N#Cc1cnc(N)nc1N1CCC1c1nn2ccc(Cl)c2c(=O)n1CC1CC1 (centres unmarked) [Compound 373]
p110γ
  IC50: 361 nM
p110δ/p85α
  IC50: 27 nM
p110β/p85α
  IC50: > 1000 nM
